Measured values as given in US20160029628A1, “COMPOUNDS, COMPOSITIONS, AND METHODS FOR REPELLING AN INSECT FROM AN AREA,ARTICLE, AND/OR STRUCTURE” (BAYER CROPSCIENCE LP, priority 2013, published 2016).

How the values were obtained:
[1] = test system: honeybees; assay: Honeybee repellency at feeding stations, repellent in 50% sucrose solution; format: in vivo
Procedure: FIG. 1 describes the feeding station arrangement (A and B) for the honeybee repulsion experiments described herein. As set forth in FIG. 1, panel (A) sets forth the bee cage positions on the left portion of panel (A) with the randomized feeding station positions on the right portion of panel (A). Panel (B) sets forth an alignment of the randomized feeding station positions with a distance of two meters between feeding stations. A total of eight feeding stations were evaluated at a ten meter distance in front of the respective bee hives. The feeding stations were placed two meters apart from one another.
Honeybees were trained to deep feeders (eight positions), each containing a 50% sucrose solution for one day. After the honeybees were trained to each feeder, the 50% sucrose feeder at randomized positions 1-8 was replaced with a shallow feeder containing a combination of repelling compounds and a 50% sucrose solution according to Table 3. In accordance with FIGS. 5 and 6, 2% by weight of Camphor oil (T4), Ajowan oil (T5), Camphor powder (T6), Rosemary oil (T7), and 2-Decanone (T8) in combination with a 50% sucrose treatment were added to feeders on day two.
Table 3 describes active agents evaluated for bee repulsion and their randomized feeding station positions. As described in Table 3, T1 (control), T2 (control), T3 (control), T4 (Camphor oil), T5 (Ajowan oil), T6 (Camphor powder), T7 (Rosemary oil), and T8 (2-Decanone).
FIG. 5 evaluates the number of bees visiting a respective feed station over a time interval. FIG. 6 sets forth the mean number of honeybees visiting feeding station over a period of four hours.

[2] = Stability test of Poncho 600 with α-terpineol, clothianidin content by HPLC; format: physicochemical; conditions: combined with alpha-terpineol; up to 54° C. for eight days
Procedure: Table 5 describes a stability test with a combination of α-terpineol and Poncho 600 evaluated at room temperature, 40° C., and 54° C. at zero time, 2 days, and 8 days as confirmed by HPLC.

[3] = Stability test of Poncho 600 with Eugenol, clothianidin content by HPLC; format: physicochemical; conditions: combined with Eugenol; up to 54° C. for seven days
Procedure: Table 4 describes a stability test with a combination of Eugenol and Poncho evaluated at room temperature, 40° C., and 54° C. at zero time, 3 days, and 7 days as confirmed by high performance liquid chromatography (HPLC).

SMILES	repellency over the full 4 hour assessment period ([1]; 2% by weight with 50% sucrose, 4 hours)	repellency at 24 hours ([1]; 2% by weight with 50% sucrose)	repellency at 24 hours ([1]; 2% by weight with 50% sucrose, listed as 2-Decanone)	repellent effect relative to comparators ([1]; relative to camphor oil, ajowan oil, camphor powder, or rosemary oil, FIGS. 5-6)	chemical stability of clothianidin content [2]	chemical stability of clothianidin content [3]
CCCCCCCCC(C)=O [Compound 2-decanone, 2-decanone]	highly repellent	still repellent	exhibited repellency	larger repellent effect		
CN/C(=N\[N+](=O)[O-])NCc1cnc(Cl)s1 [clothianidin]					exhibited chemical stability	exhibited chemical stability
